The structures appear in SMILES notation. Several values for one entry are separate records, joined by “and”; a condition that tells them apart may be missing. Identical values can stand only once.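 Exposure lasted 48 hours, with cells grown in 96-well plates and compounds tested at five concentrations. At the GI50, growth is halved. TGI: concentration producing complete growth inhibition.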 A value given as a limit tells only on which side of the number the result lay.

These results are taken from PubChem BioAssay (NCI).

This experiment relates to MDA-MB-468 breast. Description: NCI anticancer screen, dose series, 48 h.
Take `CN1CCN(C(=O)[C@@]2(C)CC[C@]3(C)CC[C@]4(C)C(=CC[C@@H]5[C@@]6(C)CC[C@H](OC(=O)c7cccnc7)C(C)(C)[C@@H]6CC[C@]54C)[C@@H]3C2)CC1`: the GI50 was 1710 nM and the TGI stood at 3510 nM.

For the compound `Cc1ccc2c(c1)C(=O)/C(=C/c1cccc(OCC(=O)c3ccc(Cl)cc3)c1)CS2`, the GI50 was 2410 nM and the TGI was 7070 nM.

For the compound `C=C1C(=O)O[C@H]2[C@H]1CC/C(CNC(=O)C(C)c1ccc(CC(C)C)cc1)=C\CC[C@@]1(C)O[C@@H]21` (stereo partly specified), the GI50 was 1430 nM and the TGI was 3120 nM.

With `COc1ccc(C2CC(c3ccc4ccccc4c3)=NN2c2nc(O)c(C3=c4cc(Cl)ccc4=NC3=O)s2)cc1` (stereo unspecified), the GI50 is 21 nM and < 5 nM.

`Cc1cnc(-c2ccc(-c3ccc(NC(=O)Nc4cccc(C(F)(F)F)c4)cc3F)c3c2C(=O)NC3)[nH]1`: the GI50 is 12600 nM and the TGI is 31100 nM.

As to `COc1ccc2c(c1)C(=O)/C(=C/c1cccc(OCC(=O)c3ccc([N+](=O)[O-])cc3)c1)CO2`, the GI50 was 1580 nM and the TGI came out at 3510 nM.

As to `O=C(C(=O)c1cccnc1)c1cccnc1`, the GI50 is greater than 100000 nM and the TGI is greater than 100000 nM.

For `CN(CCCCCCCCNc1ccnc2ccccc12)Cc1ccc(-c2ccc(-c3ccc(C#N)cc3)s2)cc1`, the GI50 is 69.8 nM and the TGI came to 1290 nM.

Regarding `COc1ccccc1-c1ccc2c(N)c(C(=O)c3ccc4c(c3)OCO4)sc2n1`, the GI50 is 2430 nM and the TGI is 8640 nM.

For `COC1/C=C/OC2(C)Oc3c(C)c(O)c4c(O)c(c(/C=N/N(c5ccccc5)c5ccccc5)c(O)c4c3C2=O)NC(=O)C(C)=C/C=C/C(C)C(O)C(C)C(O)C(C)C(OC(C)=O)C1C` (stereo unspecified), the GI50 was 1840 nM and the TGI is 7500 nM.

For the compound `Fc1ccc(-c2c(-c3ccncc3)[nH]c3cccnc23)cc1`, the GI50 was 3780 nM and the TGI amounted to 24700 nM.

In the case of `O=C1/C=C/[C@@H](O)[C@@H]2C[C@@H](O)C[C@H]2/C=C/CCC[C@H](CCc2ccc(NC(=S)Nc3ccc4c(c3)C(=O)OC43c4ccc(O)cc4Oc4cc(O)ccc43)cc2)O1`, the GI50 was 178 nM and the TGI was found to be 449 nM.

Turning to `O=C1NC(c2cccc3ccccc23)Nc2ccccc21` (stereo unspecified), the GI50 was 127 nM and the TGI is greater than 100000 nM.

On to `CCN(CC)CCNc1ccc(N=Nc2cnc3ccccc3c2)c2ccccc12`, for which the GI50 is 1340 nM and the TGI turned out to be 2640 nM.

For the compound `CC[C@H](C)[C@H](NC(=O)[C@H]1CCCCN1C)C(=O)N(C)[C@H](C[C@@H](OC(C)=O)c1nc(C(=O)NC23C4C5C2C2C3C4C52C(=O)OC)cs1)C(C)C` (stereo partly specified), the GI50 was 0.428 nM and < 2.5 nM; the TGI is 6.95 nM and < 2.5 nM.

`Oc1ccccc1/C=N\Nc1ccccc1`: the GI50 is 4930 nM and the TGI was 55800 nM.

Turning to `CCCn1cc(/C=N\N=C2\C(=O)Nc3ccc(C)cc32)c2ccccc21`, the GI50 was 1690 nM and the TGI came out at 5780 nM.

As to `N#Cc1ccc(O)c(C2=NCC(c3ccc(-c4ccccc4)cc3)O2)c1` (stereo unspecified), the GI50 is 256 nM and the TGI turned out to be 1810 nM.

As to `CC[C@H](C)C(=O)O[C@H]1CCC=C2C=C[C@H](C)[C@H](CC[C@@H]3C[C@@H](O)CC(=O)O3)[C@H]21`, the GI50 was 3130 nM and the TGI was 11600 nM.

Take `COc1ccc(Cl)cc1Nc1nc(C(F)(F)F)ccc1C(=O)N/N=C/c1ccccc1Cl`: the GI50 was 1850 nM and the TGI was found to be 18500 nM.

With `CCN(CC)CCOc1ccc(NC(=O)C(C(C)C)N2C(=O)/C(=C/c3ccc(Br)cc3)SC2=S)cc1` (stereo unspecified), the GI50 was 1920 nM and the TGI turned out to be 3940 nM.

As for `CCc1c2c(nc3ccc(OC(=O)OCc4ccc(B5OC(C)(C)C(C)(C)O5)cc4)cc13)-c1cc3c(c(=O)n1C2)COC(=O)[C@]3(O)CC`, the GI50 was less than 10 nM and the TGI was determined as 54.5 nM.

As to `CCCCNP1(NCCCC)=NP(NCCCC)(NCCCC)=NP(NCCCC)(NCCCC)=NP(NCCCC)(NCCCC)=N1`, the GI50 was 194 nM and the TGI was determined as 2910 nM.

In the case of `O=c1[nH][nH]c(=O)c2c(O)c(-c3ccccc3)ncc12`, the GI50 is 25200 nM and 48200 nM; the TGI was 55800 nM and 235000 nM.

With `CCCCCCCCCCCCSC1=CC(=O)C=CC1=O`, the GI50 was 7090 nM and the TGI is greater than 34600 nM.

For `COc1cc(C(=O)c2cnc(-c3ccc4cc[nH]c4c3)[nH]2)cc(OC)c1OC`, the GI50 is 32.7 nM and the TGI was 2660 nM.

Take `CC(=O)OCC1OC([S-])C(OC(C)=O)C(OC(C)=O)C1OC(C)=O.[Au+].c1ccc(CN2[CH-]N(Cc3ccccc3)C(c3ccccc3)=C2c2ccccc2)cc1`: the GI50 is 1630 nM and 306 nM; the TGI is 3410 nM and 1170 nM.

Take `C#Cc1cccc(Nc2ncnc3ccc(-c4cnc(N)nc4)cc23)c1`: the GI50 is 376 nM and the TGI came out at 1770 nM.

With `Cn1cc(-c2csc(-c3cn(CCCN4CCCCC4)c4ccc(Br)cc34)n2)c2cccnc21`, the GI50 is 1860 nM and the TGI is 3550 nM.

As for `O=C(Nc1cccc(-n2ccc3c(NC(=O)c4ccccc4)nccc32)c1)c1ccc(Cl)c(Cl)c1`, the GI50 is 176 nM and the TGI stood at 903 nM.

Take `O=c1oc2ccc(I)cc2c(=O)n1-c1ccc(I)cc1F`: the GI50 is 521 nM and the TGI came out at 2940 nM.

With `COc1ccc(C(=O)/C=C/c2c(C(F)(F)F)nc3ccccn23)cc1OC`, the GI50 is 1810 nM and the TGI was 5060 nM.

For the compound `CN(C)c1ccc2cc3c(cc2c1)Oc1ccccc1N3.[Cl][Zn][Cl]`, the GI50 is 1090 nM and the TGI came to 3150 nM.

On to `CN(C)C[C@@H]1CCn2cc(c3ccccc32)C2=C(C(=O)NC2=O)c2cn(c3ccccc23)CCO1`, for which the GI50 was 2170 nM and the TGI is greater than 10000 nM.

In the case of `O=C1c2c(c3c4ccccc4n(CCCCCCN4CCOCC4)c3c3[nH]c4ccccc4c23)C(=O)N1O`, the GI50 is 1970 nM and the TGI worked out at 4690 nM.

Regarding `COc1ccc(-c2nsc3c2NC(=O)CC3c2cccc(F)c2)cc1` (stereo unspecified), the GI50 is 1940 nM and the TGI worked out at 6980 nM.

As to `CN(C)CCN(C)c1ccc2ncc(C#Cc3cncc(C(=O)Nc4ccc(CN5CCN(C)CC5)c(C(F)(F)F)c4)c3)n2n1`, the GI50 was 3080 nM and the TGI is 9910 nM.

Take `N#Cc1ccc(C(=O)c2cnn(-c3ccc(F)cc3)c2N)cc1`: the GI50 was greater than 25000 nM and the TGI was greater than 25000 nM.

Regarding `O=C(CCN1CCCC1)Nc1ccc2c(Nc3ccc(Br)cc3)c3ccccc3nc2c1`, the GI50 was 1720 nM and the TGI was determined as 3270 nM.

For the compound `COc1ccc2[nH]cc(C3(c4c[nH]c5ccc(OC)cc45)C(=O)Nc4ccc(Cl)cc43)c2c1`, the GI50 is 2500 nM and the TGI amounted to 7850 nM.

In the case of `CC1=C[C@H]2O[C@@H]3C[C@H]4OC(=O)/C=C\C=C\[C@H]([C@@H](C)O)OCC/C(C)=C/C(=O)OC[C@@]2(CC1)[C@]4(C)[C@]31CO1`, the GI50 is 3.56 nM and the TGI came to 12.4 nM.
